Paper PMC5814162, “Anticoagulants inhibit proteolytic clearance of plasma amyloid beta” (Oncotarget, 2017)

What was measured:
[1] = test system: plasma Aβ42 (FXII-FVII pathway); experiment: Plasma Aβ42 level in mice given synthetic Aβ42 after anticoagulant treatment (ELISA); type: in vivo; conditions: male C57BL/6 mice, anticoagulant once daily for 5 days (EP 0.1 and 0.5 mg/kg i.p.; DGT 22.5 and 45 mg/kg p.o.), Aβ42 40 μg/kg i.p. 1 h after final dose, blood 6 h later, vs vehicle, mean of n = 3, 'up to' over the two doses
Description: All experiments were approved by the Institutional Animal Care and Use Committee at the Roswell Park Cancer Institute under protocol 1022M. All mice were housed in individually ventilated pathogen-free cage systems equipped with HEPA filtered air supply and reverse osmosis purified water in a centralized vivarium facility. The facility is controlled with fully automated sensors for light (12-hour dark - 12-hour light cycle), temperature (70°F ± 2°F), humidity and airflow. All mice had free access to standard rodent diet (sterilizable Teklad #2018, with 6% fat and alfalfa free). C57BL/6NTac mice (male) were purchased from Taconic and used in two experiments. In the first experiment, mice at 8-9 weeks of age were treated with vehicle or an anticoagulant once daily for 5 days, and 1 h after the final treatment, the mice were treated with a single dose of Aβ42, followed by blood draw 6 h later. Blood was collected from the mice by cardiac puncture at the time of sacrifice by carbon dioxide and was collected into K3 EDTA-containing tubes (Multivette 600 from Sarstedt), from which plasma samples were prepared. […] Plasma concentrations of Aβ were determined by ELISA, which either detects both Aβ40 and Aβ42 [53] or specifically measures each peptide. […] Plasma concentration of FI was also measured by ELISA using a kit from GenWay Biotech. […]

[2] = test system: plasma Aβ40 / endogenous Aβ (FXII-FVII pathway); experiment: Plasma Aβ level in mice treated with EP and/or Aβ40 (ELISA); type: in vivo; conditions: male C57BL/6 mice, EP 0.5 mg/kg i.p. once daily 5 days, n = 3
Description: All experiments were approved by the Institutional Animal Care and Use Committee at the Roswell Park Cancer Institute under protocol 1022M. All mice were housed in individually ventilated pathogen-free cage systems equipped with HEPA filtered air supply and reverse osmosis purified water in a centralized vivarium facility. The facility is controlled with fully automated sensors for light (12-hour dark – 12-hour light cycle), temperature (70°F ± 2°F), humidity and airflow. All mice had free access to standard rodent diet (sterilizable Teklad #2018, with 6% fat and alfalfa free). C57BL/6NTac mice (male) were purchased from Taconic and used in two experiments. In the first experiment, mice at 8–9 weeks of age were treated with vehicle or an anticoagulant once daily for 5 days, and 1 h after the final treatment, the mice were treated with a single dose of Aβ42, followed by blood draw 6 h later. Blood was collected from the mice by cardiac puncture at the time of sacrifice by carbon dioxide and was collected into K3 EDTA-containing tubes (Multivette 600 from Sarstedt), from which plasma samples were prepared. […]
(§1) Plasma concentrations of Aβ were determined by ELISA, which either detects both Aβ40 and Aβ42 [53] or specifically measures each peptide. […] Plasma concentration of FI was also measured by ELISA using a kit from GenWay Biotech. […]

FXII-FVII pathway [3] = experiment: Plasma coagulation factor activation in mice treated with EP and/or Aβ40 (Western blotting, FI by ELISA); type: in vivo; conditions: male C57BL/6 mice; EP 0.5 mg/kg i.p. once daily 5 days, then Aβ40 40 μg/kg i.p.; blood 6 h later
Description: All experiments were approved by the Institutional Animal Care and Use Committee at the Roswell Park Cancer Institute under protocol 1022M. All mice were housed in individually ventilated pathogen-free cage systems equipped with HEPA filtered air supply and reverse osmosis purified water in a centralized vivarium facility. The facility is controlled with fully automated sensors for light (12-hour dark – 12-hour light cycle), temperature (70°F ± 2°F), humidity and airflow. All mice had free access to standard rodent diet (sterilizable Teklad #2018, with 6% fat and alfalfa free). C57BL/6NTac mice (male) were purchased from Taconic and used in two experiments. […]
as §1
(§2) Each plasma sample (7.5 μl of plasma per sample) was mixed with 4x loading dye, heated at 95°C for 5 min, and resolved by SDS-PAGE. The separated proteins were transferred to polyvinylidene fluoride membrane, probed with specific antibodies, and detected using Luminata Classico or Luminata Cresendo (Millipore).

FXII-FVII pathway [4] = experiment: FXII-FVII pathway activation in J20 mice and WT littermates, effect of EP (Western blotting, FI by ELISA); type: in vivo; conditions: EP 0.5 mg/kg i.p. once daily 5 days; for effect of EP on coagulation factor activation in J20 mice: blood 6 h after final treatment; for effect of EP on plasma FI level in WT littermates: ELISA
Description: (§3) J20 mice were purchased from the Mutant Mouse Resource & Research Centers (MMRRC) via the Jackson Laboratory. Hemizygous male J20 mice in C57BL/6J background were bred with WT female mice (C57BL/6J, also from Jackson Laboratory). F1 hemizygous J20 mice were identified by PCR genotyping based on the Jackson Laboratory protocol (https://www/jax.org/strain/006293) and used for experiments. J20 mice and their WT littermates (at the age of 1, 3 and 6 months, male and female) were treated with EP or vehicle i.p. once daily for 5 days, and at 6 h after the last treatment, blood was drawn from the mice.
(§4) Plasma concentrations of Aβ were determined by ELISA, which either detects both Aβ40 and Aβ42 [53] or specifically measures each peptide. In the latter case, ELISA kits from Invitrogen (KHB3481 and KHB3441) were used. Plasma concentration of FI was also measured by ELISA using a kit from GenWay Biotech. The commercial kits were used by following the manufacturers’ instructions.
as §2

plasma Aβ = experiment: Plasma Aβ level in J20 mice and WT littermates, ELISA measuring both Aβ40 and Aβ42; type: in vivo; conditions: EP 0.5 mg/kg i.p. once daily 5 days
Description: as §3, §4

plasma Aβ40 = experiment: Plasma Aβ40 level in J20 mice and WT littermates, ELISA specific for Aβ40; type: in vivo; conditions: 3 months of age, EP 0.5 mg/kg i.p. once daily 5 days
Description: as §3, §4

plasma Aβ42 = experiment: Plasma Aβ42 level in J20 mice and WT littermates, ELISA specific for Aβ42; type: in vivo; conditions: 3 months of age, EP 0.5 mg/kg i.p. once daily 5 days
Description: as §3, §4

[5] = test system: brain amyloid plaque load; conditions: Tg2576 mice; chronic treatment with EP at the same dose regimen (∼2.5 mg/kg, i.p., 3 times weekly); cited from earlier work
From the text: (§5) By inhibiting the FXII-FVII pathway, anticoagulants present an interesting dichotomy in impacting AD: Inhibiting procoagulant activity, potentially slowing or ameliorating AD, but also inhibiting plasma Aβ degradation, potentially contributing to brain Aβ accumulation. Indeed, increased coagulation is implicated in AD [42], but there is also evidence that peripheral Aβ moves to the brain [43]. The exact effect of anticoagulants on AD remains unclear. Treatment of AD mice (APP23 mice) with EP (∼2.5 mg/kg, i.p., 3 times weekly) for 6 months reduced brain astrocyte activation and Aβ accumulat ...

[6] = test system: brain astrocyte activation and Aβ accumulation; conditions: APP23 mice; EP ∼2.5 mg/kg, i.p., 3 times weekly for 6 months; cited from earlier work
From the text: as §5

## [H]/N=C(/N)c1ccc(NCc2nc3cc(C(=O)N(CCC(=O)O)c4ccccn4)ccc3n2C)cc1 [DGT, dabigatran]
[1]
  increase in plasma level of Aβ42: up to 21.3 fold

## enoxaparin [EP]
[1]
  increase in plasma level of Aβ42: up to 73.3 fold
[2]; Aβ40 40 μg/kg i.p. 1 h after last dose, blood 6 h later
  increase in plasma level of exogenously administered Aβ40: 77.4 fold
[2]; no Aβ40 injected
  elevation of plasma level of endogenous Aβ: 1.7 fold
FXII-FVII pathway [3]
  effect of EP on Aβ40-induced activation of coagulation factors: prevents the activation of FX, FII, FVII and FI
FXII-FVII pathway [4]; 1 month of age, male and female
  effect of EP on coagulation factor activation in J20 mice: greatly attenuated the activation of FX, FII, FVII and FI
FXII-FVII pathway [4]; 3 and 6 months of age
  effect of EP on coagulation factor activation in J20 mice: strongly inhibited the activation of FX, FII, FVII and FI
  effect of EP on plasma FI level in WT littermates: slightly elevate FI level
FXII-FVII pathway [4]; 1 month of age
  effect of EP on plasma FI level in WT littermates: only slightly elevated FI level
Plasma Aβ; 1 month of age, female
  ratio of EP-induced increase in plasma Aβ level in J20 mice over that in the WT littermates: 8.7
Plasma Aβ; 1 month of age, male
  ratio of EP-induced increase in plasma Aβ level in J20 mice over that in the WT littermates: 9.3
Plasma Aβ; 3 months of age, female
  ratio of EP-induced increase in plasma Aβ level in J20 mice over that in the WT littermates: 56.9
Plasma Aβ; 3 months of age, male
  ratio of EP-induced increase in plasma Aβ level in J20 mice over that in the WT littermates: 47.5
Plasma Aβ; 6 months of age, female
  ratio of EP-induced increase in plasma Aβ level in J20 mice over that in the WT littermates: 51.2
Plasma Aβ; 6 months of age, male
  ratio of EP-induced increase in plasma Aβ level in J20 mice over that in the WT littermates: 40.4
Plasma Aβ; J20 mice, 1 month of age, male or female, n = 3
  increase in plasma Aβ concentration after EP treatment: 2.3 fold
Plasma Aβ; J20 mice, 3 months of age, female, n = 3
  increase in plasma Aβ level after EP treatment: 4.2 fold
Plasma Aβ; J20 mice, 3 months of age, male, n = 3
  increase in plasma Aβ level after EP treatment: 3.7 fold
Plasma Aβ; J20 mice, 6 months of age, female, n = 3
  increase in plasma Aβ level after EP treatment: 3.6 fold
Plasma Aβ; J20 mice, 6 months of age, male, n = 3
  increase in plasma Aβ level after EP treatment: 3.4 fold
Plasma Aβ; WT littermates, regardless of age or gender, blood 6 h after final treatment, n = 3
  elevation of plasma Aβ concentration: approximately 1.6 fold
Plasma Aβ40; Aβ40, female
  ratio of EP-induced increase in plasma Aβ level in J20 mice over that in the WT littermates: 40.1
Plasma Aβ40; Aβ40, male
  ratio of EP-induced increase in plasma Aβ level in J20 mice over that in the WT littermates: 45.7
Plasma Aβ40; J20 mice, female
  increase in plasma level of Aβ40 after EP treatment: 4.3 fold
Plasma Aβ40; J20 mice, male
  increase in plasma level of Aβ40 after EP treatment: 3.6 fold
Plasma Aβ40; WT littermates, female
  increase in plasma level of Aβ40 after EP treatment: 1.9 fold
Plasma Aβ40; WT littermates, male
  increase in plasma level of Aβ40 after EP treatment: 1.6 fold
Plasma Aβ42; Aβ42, female
  ratio of EP-induced increase in plasma Aβ level in J20 mice over that in the WT littermates: 63.6
Plasma Aβ42; Aβ42, male
  ratio of EP-induced increase in plasma Aβ level in J20 mice over that in the WT littermates: 47.3
Plasma Aβ42; J20 mice, female
  increase in plasma level of Aβ42 after EP treatment: 4.7 fold
Plasma Aβ42; J20 mice, male
  increase in plasma level of Aβ42 after EP treatment: 4.3 fold
Plasma Aβ42; WT littermates, female
  increase in plasma level of Aβ42 after EP treatment: 1.6 fold
Plasma Aβ42; WT littermates, male
  increase in plasma level of Aβ42 after EP treatment: 1.7 fold
[5]
  effect on brain amyloid plaque load: significantly increased brain amyloid plaque load
[6]
  effect on brain astrocyte activation and Aβ accumulation: reduced brain astrocyte activation and Aβ accumulation
